Earlier results as cited in US12109304B1, “Oral patch for treating mouth ulcers” (Xiamen LP Pharmaceutical Co., Ltd., priority 2023, dated 2024).

For `CCCCNc1ccc(C(=O)OCCN(C)C)cc1.Cl` [Tetracaine hydrochloride], the “Solubility in ethanol / alcohol” value (ethanol (alcohol)) is listed as “soluble” and the Solubility in water (water) is listed as “soluble”.
